Source: article PMC5766630, “Non-estrogenic Xanthohumol Derivatives Mitigate Insulin Resistance and Cognitive Impairment in High-Fat Diet-induced Obese Mice” (Scientific Reports, 2018)

What was measured:
[1] = molecular target: T1, full-length purified human estrogen receptor ERα (Homo sapiens, UniProt P03372); test: ERα competitive radiometric binding assay; details: RBA = IC50[estradiol]/IC50[compound] × 100, estradiol = 100; 2 nM [3H]-estradiol tracer, 18–24 h at 0 °C
T1 construct: full-length purified human estrogen receptors ERα and ERβ
T1 sequence (P03372 1-595): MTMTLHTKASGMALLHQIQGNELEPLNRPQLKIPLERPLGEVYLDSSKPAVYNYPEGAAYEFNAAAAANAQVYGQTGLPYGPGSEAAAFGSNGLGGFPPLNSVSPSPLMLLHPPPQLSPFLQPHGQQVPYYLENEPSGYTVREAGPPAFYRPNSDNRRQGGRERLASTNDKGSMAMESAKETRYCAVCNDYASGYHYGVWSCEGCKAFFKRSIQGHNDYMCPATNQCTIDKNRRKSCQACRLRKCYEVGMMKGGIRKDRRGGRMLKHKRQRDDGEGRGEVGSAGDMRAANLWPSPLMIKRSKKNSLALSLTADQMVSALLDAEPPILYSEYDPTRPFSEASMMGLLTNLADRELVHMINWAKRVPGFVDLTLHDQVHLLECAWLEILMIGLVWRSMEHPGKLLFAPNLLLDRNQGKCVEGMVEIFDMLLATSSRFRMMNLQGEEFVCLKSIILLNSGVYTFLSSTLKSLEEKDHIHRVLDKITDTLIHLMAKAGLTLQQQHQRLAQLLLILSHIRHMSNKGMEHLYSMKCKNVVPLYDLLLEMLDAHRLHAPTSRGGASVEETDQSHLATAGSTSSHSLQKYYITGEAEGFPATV
Description: The receptors and ligands were incubated for 18–24 h at 0 °C and then the receptor–ligand complexes separated using hydroxyapatite (BioRad, Hercules, CA, USA).

[2] = tested on: C57BL/6J mice fed a high-fat diet; test: 13-week HFD feeding study: body weight, food intake, liver weight, metabolic parameters; type: in vivo, mouse; details: 13 weeks; for Body weight gain / HOMA-IR / Fasting plasma glucose / Feed efficiency / Food intake / Liver weight / Plasma cholesterol / Plasma insulin / Plasma leptin / Plasma triglycerides: male C57BL/6J mice, HFD, mean ± SE; for Body weight gain: 30 mg/kg body weight/day in diet; for Body weight gain / Fasting plasma glucose / Feed efficiency / Food intake / Liver weight / Plasma cholesterol / Plasma insulin / Plasma leptin / Plasma triglycerides: n = 11–12; for HOMA-IR / Fasting plasma glucose / Feed efficiency / Food intake / Liver weight / Plasma cholesterol / Plasma insulin / Plasma leptin / Plasma triglycerides: 30 mg/kg/day in diet; for HOMA-IR: insulin (mU/L) × glucose (mmol/L)/22.5
From the text: Nine-week old male C57BL/6J mice, obtained from The Jackson Laboratory (Bar Harbor, ME, USA), were housed individually in plastic cages under a 12–12-hr light-dark cycle. They were assigned randomly to four groups consisting of 12 mice each. One group (control) was fed a HFD (Dyets Inc., Bethlehem, PA, USA) containing 60%, 20% and 20% total calories from fat, carbohydrate and protein, respectively, and the other three groups were fed the HFD containing XN, DXN, or TXN. The test compounds were dissolved in an isotropic mixture of oleic acid:propylene glycol:Tween 80, 0.9:1:1 by weight (OPT) before incorporation into the HFD. The control diet contained an identical amount of OPT. All diets were prepared in pellet form by Dyets, Inc. (Bethlehem, PA, USA). The mouse diets were formulated to deliver a dose of 30 mg test compound per kg body weight per day. Food intake was measured three times per week and body weights were recorded weekly. At the end of 13 weeks of feeding, the mice were euthanized and blood, liver and skeletal muscle were collected for analyses. All animal protocols were approved by Institutional Animal Care and Use Committee (IACUC) at Oregon State University. Animal experiments were carried out in accordance with the relevant guidelines and regulations.
Plasma triglycerides and total cholesterol were analyzed with commercially available kits (Fisher-Scientific, Pittsburgh, PA, USA). Plasma glucose was analyzed by a test kit obtained from Wako Diagnostics (Mountain View, CA, USA). Plasma insulin and leptin were analyzed by ELISA kits purchased from Alpco Diagnostics (Salem, NH, USA) and Crystal Chem (Downers Grove, IL, USA), respectively. Homeostasis Model Assessment of Insulin Resistance (HOMA-IR) was calculated as follows: fasting plasma insulin concentration (mU/L) × fasting plasma glucose level (mmol/L)/22.5[95]. Plasma levels of AST and ALT were measured using commercially-available kits (Bioo Scientific Corp., Austin, TX, USA) as indicators of in vivo liver toxicity.
Body weight, food intake, and metabolic measurements: data were analyzed using a one-way ANOVA in PROC GLM for single measures within animals (i.e., liver, plasma, and muscle metabolic measures) and a repeated-measures-in-time design ANOVA in PROC MIXED for repeated measures within animals (i.e., body weight, feed intake, and feed efficiency). The area-under-the-curve (AUC) for the glucose tolerance tests were calculated using the trapezoidal rule. Before statistical analysis, data were examined for variance homogeneity and normality. To achieve normality, liver, plasma, and muscle XN data and plasma insulin data were natural log-transformed. For statistical comparisons, the control group was compared with each XN metabolite group.

| SMILES | RBA ERα (relative binding affinity) [1] | Body weight gain [2] [g] | HOMA-IR [2] | Fasting plasma glucose [2] [mg/dL] | Feed efficiency [2] | Food intake [2] [g/day] | Liver weight [2] [g] | Plasma cholesterol [2] [mg/dL] | Plasma insulin [2] [ng/mL] | Plasma leptin [2] [ng/mL] | Plasma triglycerides [2] [mg/dL] | Plasma leptin concentration, change compared with controls ([2]; HFD mice, 30 mg/kg/day) [%] | HOMA-IR index as % of control mice ([2]; HFD mice, 30 mg/kg/day) | Liver weight, change compared with controls ([2]; HFD mice, 30 mg/kg/day) [%] | Plasma insulin, change compared with controls ([2]; HFD mice, 30 mg/kg/day) [%] |
| --- | --- | --- | --- | --- | --- | --- | --- | --- | --- | --- | --- | --- | --- | --- | --- |
| COc1cc(O)c(CC=C(C)C)c(O)c1C(=O)/C=C/c1ccc(O)cc1 [XN, 3′-[3,3-dimethylallyl]-2′,4′,4-trihydroxy-6′-methoxychalcone] | 0.0021 ± 0.0003 | 16.1 ± 1.3 | 31.3 ± 1.7 | 169 ± 8.3 | 0.068 ± 0.006 g weight gain/g food intake | 2.59 ± 0.09 | 1.14 ± 0.07 | 196 ± 8.5 | 2.61 ± 0.65 | 10.6 ± 1.00 | 80.6 ± 4.2 |  |  |  |  |
| COc1cc(O)c(CC=C(C)C)c(O)c1C(=O)CCc1ccc(O)cc1 [DXN, α,β-Dihydroxanthohumol] | 0.0029 ± 0.0007 | 15.1 ± 1.3 | 22.0 ± 5.2 | 150 ± 13.0 | 0.062 ± 0.006 g weight gain/g food intake | 2.66 ± 0.09 | 1.11 ± 0.07 | 167 ± 8.5 | 2.08 ± 0.69 | 8.48 ± 1.00 | 84.4 ± 4.9 | −26 |  |  |  |
| COc1cc(O)c(CCC(C)C)c(O)c1C(=O)CCc1ccc(O)cc1 [TXN, tetrahydroxanthohumol] | 0.0033 ± 0.001 | 9.70 ± 1.4 | 4.10 ± 0.3 | 118 ± 7.2 | 0.042 ± 0.006 g weight gain/g food intake | 2.51 ± 0.09 | 0.93 ± 0.07 | 167 ± 8.9 | 0.49 ± 0.08 | 6.39 ± 1.04 | 79.3 ± 7.8 | −44 | 13 % of control mice | −21 | −82 |
